Structures can show the parent of a compound that is named as a salt.
System: SARS-CoV-2
Assay: microbe, parasite or virus in culture
Details: Severe acute respiratory syndrome coronavirus 2, Vero C1008, 48 h

SMILES	IC50 [µM]	IC50 (read-out: pIC50 (converted)) [µM]
C=CCNc1nc(NCC=C)nc(N2CCN(C(c3ccc(F)cc3)c3ccc(F)cc3)CC2)n1 [ALMITRINE]	> 20	> 20
CN(C)CCc1c[nH]c2ccc(CS(=O)(=O)N3CCCC3)cc12 [ALMOTRIPTAN]	> 20	> 20
Cn1c(=O)cc(N2CCC[C@@H](N)C2)n(Cc2ccccc2C#N)c1=O [ALOGLIPTIN]	> 20	> 20
Cc1[nH]cnc1CN1CCc2c(c3ccccc3n2C)C1=O [ALOSETRON]	> 20	> 20
Cc1cn([C@H]2C[C@H](F)[C@@H](CO)O2)c(=O)[nH]c1=O [ALOVUDINE]	> 100	> 100
Cc1nc(NC(=O)N2CCC[C@H]2C(N)=O)sc1-c1ccnc(C(C)(C)C(F)(F)F)c1 [ALPELISIB]	> 20	> 20
CCOC(=O)c1[nH]c2cc(OC)c(OC)cc2c1CCN1CCN(c2ccccc2)CC1 [ALPERTINE]	> 20	> 20
CC1(C)C(C=C(Cl)Cl)C1C(=O)OC(C#N)c1cccc(Oc2ccccc2)c1 (stereo not drawn) [ALPHA-CYPERMETHRIN]	> 20	> 20
O=C(O)CCC(=O)C(=O)O [ALPHA-KETOGLUTARIC ACID]	> 20	> 20
CC[C@@H](O)C(C[C@@H](C)N(C)C)(c1ccccc1)c1ccccc1 [ALPHAMETHADOL]	> 20	> 20
CCC(=O)OC1(c2ccccc2)CCN(C)CC1C (stereo unspecified) [ALPHAPRODINE]	> 20	> 20
CCCN(CCC)C(=O)Cc1c(-c2ccc(Cl)cc2)nc2ccc(Cl)cn12 [ALPIDEM]	> 20	> 20
Cc1nnc2n1-c1ccc(Cl)cc1C(c1ccccc1)=NC2 [ALPRAZOLAM]	> 20	> 20
C=CCc1ccccc1OCC(O)CNC(C)C (stereo unspecified) [ALPRENOLOL]	> 20	> 20
CCCCC[C@H](O)/C=C/[C@H]1[C@H](O)CC(=O)[C@@H]1CCCCCCC(=O)O [ALPROSTADIL]	> 20	> 20
O=C(O)CN1C(=O)c2cccc3cccc(c23)C1=O [ALRESTATIN]	> 20	> 20
O=C(c1ccc(F)cc1)C1CCN(CCn2c(=S)[nH]c3ccccc3c2=O)CC1 [ALTANSERIN]	> 20	> 20
C=CCSCC1Nc2cc(Cl)c(S(N)(=O)=O)cc2S(=O)(=O)N1 (stereo unspecified) [ALTHIAZIDE]	> 20	> 20
C#Cc1cncc([C@@H]2CCCN2C)c1 [ALTINICLINE]	> 20	> 20
C=CC[C@]1(O)CC[C@H]2[C@@H]3CCC4=CC(=O)CCC4=C3C=C[C@@]21C [ALTRENOGEST]	> 20	> 20

SMILES	IC50 [µM]	IC50 (read-out: pIC50 (converted)) [µM]
CN(C)c1nc(N(C)C)nc(N(C)C)n1 [ALTRETAMINE]	> 20	> 20
CCN(CCCc1ccccc1)CCCc1ccccc1 [ALVERINE]	> 20	> 20
Nc1ncnc(Nc2ccccc2)n1 [AMANOZINE]	> 20	> 20
NC12CC3CC(CC(C3)C1)C2 [AMANTADINE]	> 20	> 20
Nc1ccc(C(=O)N2CC3CC(CN(Cc4ccccc4)C3)C2)cc1 [AMBASILIDE]	> 20	> 20
N=C(N)NN=C1C=CC(=NNC(N)=S)C=C1 [AMBAZONE]	> 20	> 20
COC(c1ccccc1)(c1ccccc1)[C@H](Oc1nc(C)cc(C)n1)C(=O)O [AMBRISENTAN]	> 20	> 20
Nc1c(Br)cc(Br)cc1CN[C@H]1CC[C@H](O)CC1 [AMBROXOL]	> 20	> 20
CCCCN(CCCC)C(C(N)=O)c1ccc(OC)cc1 (stereo unspecified) [AMBUCETAMIDE]	> 20	> 20
CC[N+](C)(C)CCC(C(N)=O)(c1ccccc1)c1ccccc1 [AMBUTONIUM]	> 20	> 20
CC(=O)OCC(=O)[C@@]12OC3(CCCC3)O[C@@H]1C[C@H]1[C@@H]3CCC4=CC(=O)C=C[C@]4(C)[C@@]3(F)[C@@H](O)C[C@@]12C [AMCINONIDE]	> 20	> 20
CC(C)(C)C(=O)OCOC(=O)[C@@H]1N2C(=O)[C@@H](/N=C/N3CCCCCC3)[C@H]2SC1(C)C [AMDINOCILLIN PIVOXIL]	> 20	> 20
CNCCCC1(C)C(=O)N(c2ccccc2)c2ccccc21 (stereo unspecified) [AMEDALIN]	> 20	> 20
Nc1c(CC(=O)O)cccc1C(=O)c1ccccc1 [AMFENAC]	> 20	> 20
CCn1cc(C(=O)O)c(=O)c2ccc(Cc3ccccc3)nc21 [AMFONELIC ACID]	> 20	> 20
NC(=O)Nc1ccc(S(=O)(=O)c2ccc(N)cc2)cc1 [AMIDAPSONE]	> 20	> 20
CNCC(O)c1cccc(NS(C)(=O)=O)c1 (stereo unspecified) [AMIDEPHRINE MESYLATE]	> 20	> 20
Nc1ccncc1N [AMIFAMPRIDINE]	> 20	> 20
CNn1cc(C(=O)O)c(=O)c2cc(F)c(N3CCN(C)CC3)cc21 [AMIFLOXACIN]	> 20	> 20
N=C(N)NC(=O)c1nc(Cl)c(N)nc1N [AMILORIDE]	> 50.1	> 50.1

SMILES	IC50 [µM]	IC50 (read-out: pIC50 (converted)) [µM]
Nc1c2ccccc2nc2ccccc12 [AMINACRINE]	> 20	> 20
Nc1ccc(C(=O)O)cc1 [AMINOBENZOIC ACID]	> 20	> 20
NCCCCCC(=O)O [AMINOCAPROIC ACID]	> 20	> 20
CCC1(c2ccc(N)cc2)CCC(=O)NC1=O (stereo unspecified) [AMINOGLUTETHIMIDE]	> 20	> 20
Nc1ccc(C(=O)NCC(=O)O)cc1 [AMINOHIPPURIC ACID]	> 20	> 20
NCC(=O)CCC(=O)O [AMINOLEVULINIC ACID]	> 20	> 20
C=CCn1c(N)cc(=O)n(CC)c1=O [AMINOMETRADINE]	> 20	> 20
CC(CC(C(N)=O)(c1ccccc1)c1ccccc1)N(C)C (stereo unspecified) [AMINOPENTAMIDE SULFATE]	> 20	> 20
CN(C)CC(CN1c2ccccc2Sc2ccccc21)N(C)C (stereo unspecified) [AMINOPROMAZINE]	> 20	> 20
Nc1nc(N)c2nc(CNc3ccc(C(=O)N[C@@H](CCC(=O)O)C(=O)O)cc3)cnc2n1 [AMINOPTERIN]	> 20	> 20
Cc1c(N(C)C)c(=O)n(-c2ccccc2)n1C [AMINOPYRINE]	> 20	> 20
NC1=NCC(c2ccccc2)O1 (stereo unspecified) [AMINOREX]	> 100	> 100
Nc1ccc(C(=O)O)c(O)c1 [AMINOSALICYLIC ACID]	> 20	> 20
Nc1nccs1 [AMINOTHIAZOLE]	> 20	> 20
Nc1nc(N)c(-c2ccccc2)s1 [AMIPHENAZOLE]	> 20	> 20
CN(C)CCCO[C@@H]1[C@H]2OC(C)(C)O[C@H]2O[C@@H]1[C@H](O)CO [AMIPRILOSE]	> 20	> 20
C=C(C)Cn1c(N)cc(=O)n(C)c1=O [AMISOMETRADINE]	> 20	> 20
CCN1CCCC1CNC(=O)c1cc(S(=O)(=O)CC)c(N)cc1OC (stereo unspecified) [AMISULPRIDE]	> 20	> 20

— ChEMBL document CHEMBL4651402, “Screening of ~5500 FDA-approved drugs and clinical candidates for anti-SARS-CoV-2 activity” (2021)
